Experimental data as given in EP4763839A1 (Pamplona Therapeutics (Shenzhen) Co., Ltd., priority 2023, dated 2025).
Counter-ions that a name gives are not always drawn.

Target: T1, IRAK4 (Homo sapiens, UniProt Q9NWZ3)
T1 sequence (Q9NWZ3 1-460): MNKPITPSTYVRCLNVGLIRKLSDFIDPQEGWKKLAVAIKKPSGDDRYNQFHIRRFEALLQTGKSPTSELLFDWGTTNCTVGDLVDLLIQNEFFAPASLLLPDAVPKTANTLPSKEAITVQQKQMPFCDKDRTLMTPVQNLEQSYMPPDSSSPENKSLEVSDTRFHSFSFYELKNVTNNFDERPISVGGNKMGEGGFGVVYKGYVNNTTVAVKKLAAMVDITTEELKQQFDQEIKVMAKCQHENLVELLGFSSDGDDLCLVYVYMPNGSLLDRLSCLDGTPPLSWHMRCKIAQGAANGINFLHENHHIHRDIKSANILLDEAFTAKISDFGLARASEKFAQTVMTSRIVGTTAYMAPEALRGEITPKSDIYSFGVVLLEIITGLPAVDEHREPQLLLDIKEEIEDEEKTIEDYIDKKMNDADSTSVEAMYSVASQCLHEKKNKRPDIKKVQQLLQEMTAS
Test: Degradation of IRAK4 in THP1 cells, Western blot
Type: cell-based
Parameters: Degradation of IRAK4 in THP1 by compound; host or cells: THP-1
Conditions: THP-1 cells, 24 hours of incubation; for DC50: IRAK4 protein by Western blot, read-out: DC50; for Dmax: maximum degradation rate, read-out: Dmax
Method in brief: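 THP1 cells treated 24 h, lysed; lysates normalised by BCA, 40 μg protein per lane on 10% SDS-PAGE, anti-IRAK4 Western blot with chemiluminescence detection.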

DC50 [nM] | Dmax [%] | SMILES
< 100 | > 60 | NC(=O)c1nn(-c2ccc(N3CCN(C4CCN(c5ccc(C(=O)NC6CCC(=O)NC6=O)c(F)c5)CC4)CC3)cc2)cc1NC(=O)c1cccc(C(F)(F)F)n1 (stereo not shown) [Compound A422, N-(3-Carbamoyl-1-(4-(4-(1-(4-((2,6-dioxopiperidin-3-yl)carbamoyl)-3-fluorophenyl)piperidin-4-yl)piperazin-1-yl)phenyl)-1H-pyrazol-4-yl)-6-(trifluoromethyl)picolinamide]
100 to 1000 | > 60 | COc1cc(NC2CCC(=O)NC2=O)ccc1N1CCC(CN2CCN(c3ccc(-n4cc(NC(=O)c5cccc(C(F)(F)F)n5)c(C(N)=O)n4)cc3)CC2)CC1 (stereo not shown) [Compound A423, N-(3-Carbamoyl-1-(4-(4-((1-(4-((2,6-dioxopiperidin-3-yl)amino)-2-methoxyphenyl)piperidin-4-yl)methyl)piperazin-1-yl)phenyl)-1H-pyrazol-4-yl)-6-(trifluoromethyl)picolinamide]
< 100 | > 60 | COc1cc(NC2CCC(=O)NC2=O)ccc1N1CCC(N2CCN(c3ccc(-n4cc(NC(=O)c5cccc(C(F)(F)F)n5)c(C(N)=O)n4)cc3)CC2)CC1 (stereo not shown) [Compound A425, N-(3-Carbamoyl-1-(4-(4-(1-(4-((2,6-dioxopiperidin-3-yl)amino)-2-methoxyphenyl)piperidin-4-yl)piperazin-1-yl)phenyl)-1H-pyrazol-4-yl)-6-(trifluoromethyl)picolinamide]
< 100 | > 60 | NC(=O)c1cn(-c2ccc(N3CCN(CC4CCN(c5ccc(NC6CCC(=O)NC6=O)cc5F)CC4)CC3)cc2)cc1NC(=O)c1cccc(C(F)(F)F)n1 (stereo not shown) [Compound A427, N-(4-Carbamoyl-1-(4-(4-((1-(4-((2,6-Dioxopiperidin-3-yl)amino)-2-fluorophenyl)piperidin-4-yl)methyl)piperazin-1-yl)phenyl)-1H-pyrrol-3-yl)-6-(trifluoromethyl)picolinamide]
< 100 | > 60 | NC(=O)c1cn(-c2ccc(N3CCN(C4CCN(c5ccc(NC6CCC(=O)NC6=O)cc5F)CC4)CC3)cc2)cc1NC(=O)c1cccc(C(F)(F)F)n1 (stereo not shown) [Compound A428, N-(4-Carbamoyl-1-(4-(4-(1-(4-((2,6-Dioxopiperidin-3-yl)amino)-2-fluorophenyl)piperidin-4-yl)piperazin-1-yl)phenyl)-1H-pyrrol-3-yl)-6-(trifluoromethyl)picolinamide]
< 100 | > 60 | NC(=O)c1nn(-c2ccc(N3CCN(C4CCN(c5ccc(OC6CCC(=O)NC6=O)cc5F)CC4)CC3)cc2)cc1NC(=O)c1cccc(C(F)(F)F)n1 (stereo not shown) [Compound A430, N-(3-Carbamoyl-1-(4-(4-(1-(4-((2,6-dioxopiperidin-3-yl)oxy)-2-fluorophenyl)piperidin-4-yl)piperazin-1-yl)phenyl)-1H-pyrazol-4-yl)-6-(trifluoromethyl)picolinamide]
100 to 1000 | 40 to 60 | NC(=O)c1nn(-c2ccc(N3CCN(C4CCN(c5ccc(NC6CCC(=O)NC6=O)cn5)CC4)CC3)cc2)cc1NC(=O)c1cccc(C(F)(F)F)n1 (stereo not shown) [Compound A432, N-(3-Carbamoyl-1-(4-(4-(1-(5-((2,6-Dioxopiperidin-3-yl)amino)pyridin-2-yl)piperidin-4-yl)piperazin-1-yl)phenyl)-1H-pyrazol-4-yl)-6-(trifluoromethyl)picolinamide]
100 to 1000 | 40 to 60 | NC(=O)c1nn(-c2ccc(N3CCN(C4CCN(c5ccc(C(=O)NC6CCC(=O)NC6=O)cn5)CC4)CC3)cc2)cc1NC(=O)c1cccc(C(F)(F)F)n1 (stereo not shown) [Compound A433, N-(3-Carbamoyl-1-(4-(4-(1-(5-((2,6-dioxopiperidin-3-yl)carbamoyl)pyridin-2-yl)piperidin-4-yl)piperazin-1-yl)phenyl)-1H-pyrazol-4-yl)-6-(trifluoromethyl)picolinamide]
< 100 | > 60 | CC(C)(O)c1nn(-c2ccc(N3CCN(CC4CCN(c5ccc(NC6CCC(=O)NC6=O)cc5F)CC4)CC3)cc2)cc1NC(=O)c1cccc(C(F)(F)F)n1 (stereo not shown) [Compound A434, N-(1-(4-(4-((1-(4-((2,6-Dioxopiperidin-3-yl)amino)-2-fluorophenyl)piperidin-4-yl)methyl)piperazin-1-yl)phenyl)-3-(2-hydroxypropan-2-yl)-1H-pyrazol-4-yl)-6-(trifluoromethyl)picolinamide]
< 100 | > 60 | CC(C)(O)c1nn(-c2ccc(N3CCN(CC4CCN(c5ccc(NC6CCC(=O)NC6=O)cn5)CC4)CC3)cc2)cc1NC(=O)c1cccc(C(F)(F)F)n1 (stereo not shown) [Compound A438, N-(1-(4-(4-((1-(5-((2,6-Dioxopiperidin-3-yl)amino)pyridin-2-yl)piperidin-4-yl)methyl)piperazin-1-yl)phenyl)-3-(2-hydroxypropan-2-yl)-1H-pyrazol-4-yl)-6-(trifluoromethyl)picolinamide formate]
< 100 | > 60 | CC(C)(O)c1nn(-c2ccc(N3CCN(C4CCN(c5ccc(NC6CCC(=O)NC6=O)cc5F)CC4)CC3)cc2)cc1NC(=O)c1cccc(C(F)(F)F)n1 (stereo not shown) [Compound A439, N-(1-(4-(4-(1-(-4-((2,6-Dioxopiperidin-3-yl)amino)-2-fluorophenyl)piperidin-4-yl)piperazin-1-yl)phenyl)-3-(2-hydroxypropan-2-yl)-1H-pyrazol-4-yl)-6-(trifluoromethyl)picolinamide]
< 100 | > 60 | CC(C)(O)c1nn(-c2ccc(N3CCN(C4CCN(c5ccc(OC6CCC(=O)NC6=O)cn5)CC4)CC3)cc2)cc1NC(=O)c1cccc(C(F)(F)F)n1 (stereo not shown) [Compound A440, N-(1-(4-(4-(1-(5-((2,6-Dioxopiperidin-3-yl)oxy)pyridin-2-yl)piperidin-4-yl)piperazin-1-yl)phenyl)-3-(2-hydroxypropan-2-yl)-1H-pyrazol-4-yl)-6-(trifluoromethyl)picolinamide]
< 100 | > 60 | CC(C)(O)c1nn(-c2ccc(N3CCN(C4CCN(c5ccc(C(=O)NC6CCC(=O)NC6=O)c(F)c5)CC4)CC3)cc2)cc1NC(=O)c1cccc(C(F)(F)F)n1 (stereo not shown) [Compound A442, N-(1-(4-(4-(1-(4-((2,6-dioxopiperidin-3-yl)carbamoyl)-3-fluorophenyl)piperidin-4-yl)piperazin-1-yl)phenyl)-3-(2-hydroxypropan-2-yl)-1H-pyrazol-4-yl)-6-(trifluoromethyl)picolinamide]
< 100 | > 60 | CC(C)(O)c1nn(-c2ccc(N3CCN(C4CCN(c5ccc(C(=O)NC6CCC(=O)NC6=O)cc5F)CC4)CC3)cc2)cc1NC(=O)c1cccc(C(F)(F)F)n1 (stereo not shown) [Compound A443, N-(1-(4-(4-(1-(4-((2,6-dioxopiperidin-3-yl)carbamoyl)-2-fluorophenyl)piperidin-4-yl)piperazin-1-yl)phenyl)-3-(2-hydroxypropan-2-yl)-1H-pyrazol-4-yl)-6-(trifluoromethyl)picolinamide]
< 100 | > 60 | CN(c1ccc(N2CCC(CN3CCN(c4ccc(-n5cc(NC(=O)c6cccc(C(F)(F)F)n6)c(C(N)=O)n5)cc4)CC3)CC2)c(F)c1)C1CCC(=O)NC1=O (stereo not shown) [Compound A447, N-(3-Carbamoyl-1-(4-(4-((1-(4-((2,6-Dioxopiperidin-3-yl)(methyl)amino)-2-fluorophenyl)piperidin-4-yl)methyl)piperazin-1-yl)phenyl)-1H-pyrazol-4-yl)-6-(trifluoromethyl)picolinamide formate]
< 100 | > 60 | NC(=O)c1nn(C23CC(N4CCN(C5CCN(c6ccc(NC7CCC(=O)NC7=O)cc6F)CC5)CC4)(C2)C3)cc1NC(=O)c1cccc(C(F)(F)F)n1 (stereo not shown) [Compound A451, N-(3-Carbamoyl-1-(3-(4-(1-(4-((2,6-Dioxopiperidin-3-yl)amino)-2-fluorophenyl)piperidin-4-yl)piperazin-1-yl)bicyclo[1.1.1]pentan-1-yl)-1H-pyrazol-4-yl)-6-(trifluoromethyl)picolinamide]
< 100 | > 60 | NC(=O)c1cn(-c2ccc(N3CCN(C4CCN(c5ccc(C(=O)NC6CCC(=O)NC6=O)nc5)CC4)CC3)cc2)cc1NC(=O)c1cccc(C(F)(F)F)n1 (stereo not shown) [Compound A452, N-(4-Carbamoyl-1-(4-(4-(1-(6-((2,6-dioxopiperidin-3-yl)carbamoyl)pyridin-3-yl)piperidin-4-yl)piperazin-1-yl)phenyl)-1H-pyrrol-3-yl)-6-(trifluoromethyl)picolinamide]
< 100 | > 60 | CC(C)(O)c1nn(-c2ccc(N3CCN(CCC4CCN(C(=O)c5ccc(F)c(N6CCC(=O)NC6=O)c5)CC4)CC3)cc2)cc1NC(=O)c1cccc(C(F)(F)F)n1 [Compound A453, N-(1-(4-(4-(2-(1-(3-(2,4-Dioxotetrahydropyrimidin-1(2H)-yl)-4-fluorobenzoyl)piperidin-4-yl)ethyl)piperazin-1-yl)phenyl)-3-(2-hydroxypropan-2-yl)-1H-pyrazol-4-yl)-6-(trifluoromethyl)picolinamide]

SMILES | DC50 [nM] | Dmax [%]
CC(C)(O)c1nn(-c2ccc(N3CCN(CC4CCN(c5ccc(OC6CCC(=O)NC6=O)cn5)CC4)CC3)cc2)cc1NC(=O)c1cccc(C(F)(F)F)n1 (stereo not shown) [Compound A437] | < 100 | > 60
NC(=O)c1nn(-c2ccc(N3CCN(C(=O)N4CCC(Cc5ccc(N6CCC(=O)NC6=O)cc5)CC4)CC3)cc2)cc1NC(=O)c1cccc(C(F)(F)F)n1 [Compound A448] | 100 to 1000 | 40 to 60
